Several values for one entry are separate records, joined by “and”; a condition that tells them apart may be missing. Identical values can stand only once. Toxic doses and inconclusive results are not listed.

The assay has as its system P388 leukemia ip, CD2F1 mice, survival T/C. As to the kind of experiment: NCI In Vivo Anticancer Drug Screen. Data for tumor model P388 Leukemia (intraperitoneal) in CD2F1 (CDF1) mice. The following applies: endpoint: median survival time, higher = longer survival. The method, boiled down: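 Mice carrying the transplanted tumor received test compound or vehicle. Survival was recorded in each group, and the value is the treated-group measurement divided by that of the vehicle-treated control group.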

[1] abbreviates: dose: 12.5 mg/kg/injection, schedule: Q01DX009 (ip), vehicle: water.
[2] abbreviates: dose: 25.0 mg/kg/injection, schedule: Q01DX009 (ip), vehicle: water.
Setting [3] is: dose: 60.0 mg/kg/injection, schedule: Q01DX005 (ip), vehicle: saline.
Where [4] appears, read: dose: 120.0 mg/kg/injection, schedule: Q01DX005 (ip), vehicle: saline.
Where [5] appears, read: dose: 240.0 mg/kg/injection, schedule: Q01DX005 (ip), vehicle: saline.
Setting [6] is: dose: 50.0 mg/kg/injection, schedule: Q01DX009 (ip), vehicle: saline.
Where [7] appears, read: dose: 100.0 mg/kg/injection, schedule: Q01DX009 (ip), vehicle: saline.
Where [8] appears, read: dose: 200.0 mg/kg/injection, schedule: Q01DX009 (ip), vehicle: saline.

As for `CCOC(=O)c1cccc(C(=O)OCC)c1`, the T/C is, setting by setting: (dose: 50.0 mg/kg/injection, schedule: Q01DX009 (ip), vehicle: saline with Tween-80) 99 % of control; (dose: 100.0 mg/kg/injection, schedule: Q01DX009 (ip), vehicle: saline with Tween-80) 106 % of control; (dose: 200.0 mg/kg/injection, schedule: Q01DX009 (ip), vehicle: saline with Tween-80) 108 % of control.
As to `COC(=O)C(C)C(O)C(C)N` (configuration not stated), the T/C under setting [1] was 107 % of control; the T/C under setting [2] is 118 % of control; the T/C (dose: 50.0 mg/kg/injection, schedule: Q01DX009 (ip), vehicle: water) is 106 % of control; the T/C (dose: 100.0 mg/kg/injection, schedule: Q01DX009 (ip), vehicle: water) was 98 % of control; the T/C (dose: 200.0 mg/kg/injection, schedule: Q01DX009 (ip), vehicle: water) was 100 % of control.
For `COc1ccc2cc3c[n+](C)ccc3cc2c1OC`, the T/C was 118 % of control under setting [1] and 112 % of control under setting [2].
Consider `O=C(N/N=C\c1ccc(O)cc1O)C(=O)N/N=C\c1ccc(O)cc1O`, for which the T/C reads like this: (dose: 50.0 mg/kg/injection, schedule: Q01DX009 (ip), vehicle: Klucel (hydroxypropylcellulose) (HPC)) 98 % of control; (dose: 100.0 mg/kg/injection, schedule: Q01DX009 (ip), vehicle: Klucel (hydroxypropylcellulose) (HPC)) 105 % of control; (dose: 200.0 mg/kg/injection, schedule: Q01DX009 (ip), vehicle: Klucel (hydroxypropylcellulose) (HPC)) 100 % of control.
As to `Nc1nc2c(c(-c3nc(N)nc4c3CCC4)n1)CCC2`, the T/C was 98 % of control under setting [3], 106 % of control under setting [4] and 97 % of control under setting [5].
In the case of `O=NNc1ccc(Br)cn1`, the T/C (dose: 1.5 mg/kg/injection, schedule: Q01DX008 (ip), vehicle: water) is 100 % of control; the T/C (dose: 1.56 mg/kg/injection, schedule: Q01DX009 (ip), vehicle: water) was 115 % of control; the T/C (dose: 6.25 mg/kg/injection, schedule: Q01DX008 (ip), vehicle: water) is 154 % of control; the T/C under setting [1] was 184 % of control; the T/C (dose: 25.0 mg/kg/injection, schedule: Q01DX008 (ip), vehicle: water) is 181 % of control.
For `CC(C)=C[C@@H]1c2c(c3ccccc3n(C)c2=O)O[C@H]2c3c(c4ccccc4n(C)c3=O)OC(C)(C)[C@@H]12`, the T/C reads like this: (dose: 50.0 mg/kg/injection, schedule: Q01DX005 (ip), vehicle: saline with Tween-80) 99 % of control; (dose: 100.0 mg/kg/injection, schedule: Q01DX005 (ip), vehicle: saline with Tween-80) 100 % of control; (dose: 200.0 mg/kg/injection, schedule: Q01DX005 (ip), vehicle: saline with Tween-80) 100 % of control.
In the case of `CC(=O)NC(C(=O)O)C(C)(C)S` (configuration not stated), the T/C is 100 % of control (dose: 50.0 mg/kg/injection, schedule: Q01DX005 (ip), vehicle: Klucel (hydroxypropylcellulose) (HPC)); 100 % of control (dose: 100.0 mg/kg/injection, schedule: Q01DX005 (ip), vehicle: Klucel (hydroxypropylcellulose) (HPC)); 95 % of control (dose: 200.0 mg/kg/injection, schedule: Q01DX005 (ip), vehicle: Klucel (hydroxypropylcellulose) (HPC)).
As for `CCn1cc(C(=O)O)c(=O)c2cc(F)c(-n3cccc3)cc21`, the T/C is 101 % of control (dose: 60.0 mg/kg/injection, schedule: Q01DX005 (ip), vehicle: saline with Tween-80); 99 % of control (dose: 120.0 mg/kg/injection, schedule: Q01DX005 (ip), vehicle: saline with Tween-80); 98 % of control (dose: 240.0 mg/kg/injection, schedule: Q01DX005 (ip), vehicle: saline with Tween-80).
Consider `C/C=N/NCCC#N`, for which the T/C is 100 % of control (dose: 6.25 mg/kg/injection, schedule: Q01DX005 (ip), vehicle: saline); 100 % of control (dose: 12.5 mg/kg/injection, schedule: Q01DX005 (ip), vehicle: saline); 90 % of control (dose: 25.0 mg/kg/injection, schedule: Q01DX005 (ip), vehicle: saline).
`CCCCCCCCCCCCCCCCCCOS(=O)(=O)O` (tested in a mixture with another compound): the T/C is 102 % of control under setting [6], 104 % of control under setting [7] and 104 % of control under setting [8].
In the case of `CCOP(=O)(O)SP(=O)(O)OCC`, the T/C (dose: 25.0 mg/kg/injection, schedule: Q01DX001 (ip), vehicle: saline) was 100 % of control; the T/C (dose: 50.0 mg/kg/injection, schedule: Q01DX001 (ip), vehicle: saline) was 102 % of control; the T/C (dose: 100.0 mg/kg/injection, schedule: Q01DX001 (ip), vehicle: saline) is 102 % of control and 100 % of control; the T/C (dose: 200.0 mg/kg/injection, schedule: Q01DX001 (ip), vehicle: saline) was 101 % of control; the T/C (dose: 400.0 mg/kg/injection, schedule: Q01DX001 (ip), vehicle: saline) is 101 % of control.
Turning to `COc1ccc(N=Nc2ncc(N)nc2N)cc1`, the T/C runs as follows: (dose: 60.0 mg/kg/injection, schedule: Q01DX005 (ip), vehicle: Klucel (hydroxypropylcellulose) (HPC)) 107 % of control; (dose: 120.0 mg/kg/injection, schedule: Q01DX005 (ip), vehicle: Klucel (hydroxypropylcellulose) (HPC)) 108 % of control; (dose: 240.0 mg/kg/injection, schedule: Q01DX005 (ip), vehicle: Klucel (hydroxypropylcellulose) (HPC)) 96 % of control.
Consider `Cc1cccc(-c2nc3c(C)nc(-c4ccccc4)nc3n2Nc2ccccc2)c1`, for which, for the setting “dose: 100.0 mg/kg/injection, schedule: Q01DX001 (ip), vehicle: Klucel (hydroxypropylcellulose) (HPC)”, the T/C was 87 % of control.
`CC(N)/C(N)=N/O` (configuration not stated): the T/C reads like this: (dose: 50.0 mg/kg/injection, schedule: Q01DX005 (ip), vehicle: saline) 99 % of control; (dose: 100.0 mg/kg/injection, schedule: Q01DX005 (ip), vehicle: saline) 100 % of control; (dose: 200.0 mg/kg/injection, schedule: Q01DX005 (ip), vehicle: saline) 110 % of control.
Turning to `CC(C)=CC(=O)OCCN(C)C`, the T/C under setting [6] is 109 % of control, the T/C under setting [7] was 93 % of control and the T/C under setting [8] was 93 % of control.
Regarding `COc1cccc2c1C(=O)c1c(O)c3c(c(O)c1C2=O)C[C@@](O)(C(C)=O)C[C@@H]3OC1CC(N(C)C)C(O)C(C)O1` (some centres not stated), the T/C was 115 % of control (dose: 0.25 mg/kg/injection, schedule: Q01DX009 (ip), vehicle: water); 158 % of control (dose: 0.5 mg/kg/injection, schedule: Q01DX009 (ip), vehicle: water); 115 % of control (dose: 0.63 mg/kg/injection, schedule: Q04DX003 (ip), vehicle: water); 171 % of control and 190 % of control (dose: 1.0 mg/kg/injection, schedule: Q01DX009 (ip), vehicle: water); 116 % of control (dose: 1.25 mg/kg/injection, schedule: Q01DX001 (ip), vehicle: water); 100 % of control (dose: 1.25 mg/kg/injection, schedule: Q04DX003 (ip), vehicle: water). Also, the T/C was 200 % of control and 228 % of control (dose: 2.0 mg/kg/injection, schedule: Q01DX009 (ip), vehicle: water); 151 % of control (dose: 2.16 mg/kg/injection, schedule: Q04DX003 (ip), vehicle: water); 109 % of control (dose: 2.5 mg/kg/injection, schedule: Q04DX003 (ip), vehicle: water); 98 % of control and 88 % of control (dose: 4.0 mg/kg/injection, schedule: Q01DX009 (ip), vehicle: water); 104 % of control and 121 % of control (dose: 5.0 mg/kg/injection, schedule: Q04DX003 (ip), vehicle: water); 170 % of control (dose: 6.0 mg/kg/injection, schedule: Q04DX003 (ip), vehicle: water). Further, the T/C reads like this: (dose: 10.0 mg/kg/injection, schedule: Q01DX001 (ip), vehicle: water) 154 % of control; (dose: 10.0 mg/kg/injection, schedule: Q04DX003 (ip), vehicle: water) 199 % of control; (dose: 16.7 mg/kg/injection, schedule: Q04DX003 (ip), vehicle: water) 93 % of control; (dose: 20.0 mg/kg/injection, schedule: Q01DX001 (ip), vehicle: water) 169 % of control; (dose: 20.0 mg/kg/injection, schedule: Q04DX003 (ip), vehicle: water) 123 % of control; (dose: 40.0 mg/kg/injection, schedule: Q04DX003 (ip), vehicle: water) 114 % of control.
With `Cn1c([N+](=O)[O-])cnc1N1CCN(c2nncs2)C1=O`, the T/C by setting is: under setting [3], 100 % of control; under setting [4], 101 % of control; under setting [5], 100 % of control.
